The values that follow come from article PMC12111648, “New Dimethoxyaryl-Sesquiterpene Derivatives with Cytotoxic Activity Against MCF-7 Breast Cancer Cells: From Synthesis to Topoisomerase I/II Inhibition and Cell Death Mechanism Studies” (International Journal of Molecular Sciences, 2025).

The structures appear in SMILES notation. Entries after “also recorded” stand apart in the source; their conditions may differ.

Format in all cases: cell-based, human
The test system of one data set is MCF-7 cells. The experiment in a line: Mitochondrial membrane potential (rhodamine 123, flow cytometry). Particulars: MCF-7, compounds at respective IC50, 24 h. On the procedure: To determine whether the toxic effects of selected sesquiterpenes (10c, 11c, 12c, 13c, and 14c) are due to the production of ROS and subsequent apoptosis, the mitochondrial membrane potential was measured. With this aim, a protocol using rhodamine 123 staining and flow cytometry was established to study the effect of the selected compounds [40]. The accumulation of rhodamine 123 in mitochondria is associated with the maintenance of the electrochemical gradient in mitochondria. Daunorubicin was used as a positive control (C+). The results are presented as the percentage of cells with increased mitochondrial membrane permeability.
Rhodamine 123 (Rho123), a positively charged dye that reacts to voltage changes and enters the mitochondria, was utilized to detect modifications in the mitochondrial membrane potential. The cells were exposed to specific compounds (IC50 values for each compound) for 24 h. Control cells that had not been treated were used as negative control, while cells treated with daunorubicin at a concentration of 1 µM served as the positive control. Following this, the cells were incubated with Rho123 (at a concentration of 1 µM) in darkness for an hour at 37 °C. Afterward, the medium was taken out, and the cells were washed with PBS. The cells were then dissociated using trypsin and collected through centrifugation for 10 min at 1500×g. The supernatant was thrown away, and the cell pellets were resuspended in PBS and analyzed using flow cytometry with the FL1 filter. The results are shown as the percentage of Rho123-stained cells.
Figure 5 The effect of the compound’s treatment on mitochondrial membrane potential. […] The data represent the means ± S.D. of at least three experiments with triplicate samples.

Data set [1] deals with caspases-3/7 in MCF-7 cells. The experiment in a line: Caspase-Glo 3/7 assay. Particulars: MCF-7, 50 μM, 24 h, versus control. On the procedure: Since ROS levels were increased in the MCF-7 cancer cell line in response to the compounds, it is important to determine whether this effect is associated with the onset of apoptotic cell death. […] Cells were treated with the selected compounds at 50 μM for 24 h, incubated in situ with the Caspase-Glo 3/7 marker assay, and then analyzed in a luminometer.
The activity of caspase 3/7 in MCF-7 cells treated with the compounds was determined using a Caspase-Glo-3/7 Assay kit from Promega (UK). This assay is a homogenous and luminescent method that measures the activity of caspase-3 and -7, which are essential for apoptosis. MCF-7 cells (1 × 10^4 cells per well) were seeded in a 96-well plate and incubated overnight. The cells were then treated for 24 h with the compounds (50 µM) and a blank as a control. After treatment, the Caspase-Glo® 3/7 reagent was prepared according to the manufacturer’s instructions. Specifically, 100 μL of the reagent was added to 100 μL of culture medium containing the treated cells in each well, and the mixture was incubated for 1 h at room temperature in the dark. Luminescence was then measured using a luminometer (Berthold Sirius Single Tube Luminometer). The fold change in caspase activity was calculated by expressing the average luminescence of each treatment as a fold change with respect to the average luminescence of the negative control.
Figure 6 The effect of the compounds on caspases-3/7 activity in cells from the human breast cancer cell line MCF-7. Caspases-3/7 activity was determined in MCF-7 cells following treatment with the compounds (50 μM) for 24 h. The data are reported as the ratio of activity in treated cells vs. the control (1% ethanol), which were arbitrarily assigned a unitary value. * p < 0.05 versus control cells (Ctrl). The data are reported as the mean values ± S.D. of three different experiments with samples in triplicate.

For the next data set, the system named is MCF-10 cells. Nature of the data set: MTT cytotoxicity assay on non-tumoral MCF-10 cells. Particulars: Homo sapiens, MCF10, 48 h incubation, IC50 ± SD, three experiments in triplicate. On the procedure:
In this study, we wondered whether semi-synthetic compounds have potential antitumoral properties against BC. Therefore, we were interested in investigating the effect of the compounds on the MCF-7 cell line. Firstly, we studied the effect on cell viability using a colorimetric MTT assay, which was performed to quantify the cytotoxic activity; each compound was evaluated at different concentrations (500−100−20−4−0.8−0.16−0.032−0 µM). Daunorubicin was also used as a positive control for comparison with a reference drug. […] Although the MCF-10 cell line provides a useful selectivity model, it may not fully represent the varying sensitivities of different normal cell types within a multicellular organism. The SI value indicates the ratio of toxicity in mammalian host cells to that in a tumoral cell. The data obtained in response to different concentrations of compounds were used to calculate the IC50 and corresponding SI values, as shown in Table 1.
The American Type Culture Collection (Rockville, MD, USA) supplied the following experimental cell lines: MCF-7, a human breast cancer cell line, and MCF-10A, a human epithelial breast cell line (ATCC N° CRL-10317). Both cell lines were grown in DMEM-F12 medium containing 10% FCS, 100 U/mL penicillin, 100 μg/mL streptomycin, and 1 mM glutamine. The cells were seeded at a concentration of 100 μL per well at a plating density of 3 × 10^3 cells/well and incubated for 24 h at 37 °C under 5% humidified CO2 to enable attachment. The cells were then treated with varying concentrations of synthesized compounds for […] under the same conditions. The compound stock solution was prepared in DMSO, and the final concentration of DMSO was kept at 0.1%. Control cultures were treated with only 1% ethanol.
Cells from the MCF-7 and MCF-10 lines were seeded into 96-well plates at a density of 1 × 10^4 per well. After 24 h, the compounds were added at increasing concentrations (500–100–20-4–0.8–0.16–0.032–0 µM), and the cells were incubated at 37 °C in a humidified 5% CO2/95% air mixture for 48 h. Following incubation, the cells were washed twice with PBS, and 100 μL of 0.5 mg/mL MTT solution was added to each well. After 2 h of incubation, the MTT solution was removed, and the formazan crystals were dissolved in 50 μL of DMSO per well. Absorbance was then measured at 570 nm using a microplate ELISA reader. IC50 values, determined from three independent experiments conducted in triplicate, were calculated using SigmaPlot® software (version 11.0). The selectivity index (SI) of each compound in each cell line was determined by calculating the ratio of the IC50 values for MCF-10 and cancer cell lines. Compounds were considered selective if SI values were equal to or greater than 3 [46].

`COc1ccc(/C=C2\C(C)=CCC3C(C)(C)CCC[C@]23C)cc1OC` (stereo partly drawn) [Compound 13c, (4aS)-5-((E)-3,4-Dimethoxybenzylidene)-1,1,4a,6-tetramethyl-1,2,3,4,4a,5,8,8a-octahydronaphthalene]: in the data set on MCF-7 cells, the mitochondrial membrane permeability entry is “did not increase”. In addition, the caspases-3/7 activity entry in data set [1] is reported as “considerably enhanced”. In the data set with MCF-10 cells, this compound returned an IC50 of 135 ± 26.6 µM.
The corresponding values for `COc1cc2c(cc1OC)[C@]1(C)CCC3C(C)(C)CCC[C@]3(C)C1=C2` (stereo partly drawn) [Compound 14c, (6aR,11bS)-8,9-Dimethoxy-4,4,6a,11b-tetramethyl-2,3,4,4a,5,6,6a,11b-octahydro-1H-benzo[a]fluorene] are “did not increase”, “activated caspases-3/7; also recorded: considerably enhanced” and 393 ± 47.1 µM.
